Results from patent US20080114038A1 (priority 2004, published 2008).

What was measured:
[1] = tested on: edema of the paw induced by carragenine; assay: Edema of rat paws induced by carragenine; format: in vivo, male rats of the Wistar type; conditions: i.p. 30 minutes before carragenine 1%; molar dose equivalent to diclofenac; paw volume up to 4 hours
Experimental: For the performance of this one test, animals, such as, for example, male rats of the Wistar type were used, which weighed between 150-180 g. These rats were acquired from CEMIB/UNICAMP.
Five rats were treated with the diclofenac, five rats with the modified diclofenac and five rats with the DMSO vehicle.
After a period of approximately 30 minutes, the animals were inoculated with an intraplantary injection of approximately 0.1 mL of a solution of carragenine 1% in saline solution, at the right hind paw, while the contralateral paw received the same volume but only of the saline solution.
The quantification of the volume of the paw was performed by means of an adequate instrument, such as, for example a pletismometer. The volume of the paws was checked before the administration of the carragenine (T0) and after 30 minutes, 1, 2, 3 and 4 hours. The T0 value was subtracted from the other values arrived at.

COX-1 = COX-1 (Homo sapiens, UniProt P23219); conditions: read-out: concentration responsible for the inhibition of 50% of the production of TXA2 (IC50); human whole blood without anticoagulant, 37° C., 1 hour, serum
Sequence of COX-1 (P23219 24-599): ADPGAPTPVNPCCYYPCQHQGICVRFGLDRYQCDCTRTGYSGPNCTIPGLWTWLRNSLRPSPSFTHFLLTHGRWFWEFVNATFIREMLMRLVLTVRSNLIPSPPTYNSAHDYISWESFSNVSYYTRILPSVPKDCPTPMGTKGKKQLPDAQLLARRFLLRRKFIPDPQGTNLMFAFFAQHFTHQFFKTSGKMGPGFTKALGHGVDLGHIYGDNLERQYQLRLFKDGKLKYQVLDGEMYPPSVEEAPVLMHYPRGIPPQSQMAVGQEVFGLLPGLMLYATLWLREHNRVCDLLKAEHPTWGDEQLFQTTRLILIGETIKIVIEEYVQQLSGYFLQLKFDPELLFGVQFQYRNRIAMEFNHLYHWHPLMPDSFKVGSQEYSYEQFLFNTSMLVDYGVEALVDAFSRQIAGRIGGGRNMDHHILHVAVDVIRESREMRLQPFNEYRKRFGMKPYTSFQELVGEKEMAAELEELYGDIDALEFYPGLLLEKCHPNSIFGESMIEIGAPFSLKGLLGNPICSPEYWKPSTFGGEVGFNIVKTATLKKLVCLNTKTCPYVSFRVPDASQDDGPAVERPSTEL

In the case of O=C(Cc1ccccc1Nc1c(Cl)cccc1Cl)OCc1ccc2c(c1)no[n+]2[O-] [modified diclofenac, [2-(2,6-dichloro-phenylamino)-phenyl]-acetic acid 1-oxy-benzo[1,2,5]oxadiazol-5-ylmethyl ester], the “inhibition of the edema of the paw induced by carragenine (paw volume, FIG. 1)” value [1] is reported as “capable of inhibiting the edema of the paw induced by carragenine in the same way that the standard diclofenac” and the IC50 (COX-1) is reported as about 40.4 µM.
